The source of these data is patent publication US11274314B2, “Herbicide safener combinations for acetyl co-enzyme a carboxylase herbicide resistant plants” (priority 2016, dated 2022).

Data set [1] relates to single copy varieties AF28-A, AF26-B, AF10-D. Description: Safener potentiation of ACCase herbicide resistance in single copy wheat varieties. In kind it is in vivo. Particulars: safener combined with ACCase herbicide; single copy varieties vs multiple copy or multiple genome lines.
Data set [2] has as its system ACCase of non-mutagenized winter wheat. Description: In-vitro ACCase enzyme assay, non-mutagenized wheat. The class given is biochemical. Particulars: non-mutagenized winter wheat vs mutant accessions; 0.1-100 μM. On the procedure: (§1) Dose response. A dose response study was completed with 11, 23, 46, 92, and 184 g quizalofop ha^−1. Seven DAT the tops of plants were cut off above the newest above-ground growing point. Binomial evaluation of plant survival was performed 28 DAT. Differences were uncovered in the whole plant sensitivity to increasing application rates of quizalofop. […] Resistant to susceptible ratios for this experiment ranged from 1.6 to 7.5 based on survival/death of the plants. Cross-resistance. A cross-resistance study was conducted within the ACCase herbicide mode of action using herbicides normally lethal to wheat. Clethodim, sethoxydim, and fluazifop were used at rates of 65, 264, and 361 g ai ha^−1, plus a treatment of clethodim and 10.5 g ai ha^−1 quizalofop. Seven DAT the tops of plants were cut off above the newest above-ground growing point. Binomial evaluation of plant survival was performed 28 DAT. Tolerance of quizalofop mutants to clethodim and sethoxydim was low (Table 1). […] The experiment included four accessions which included a representative from the three mutations detected and non-mutagenized wheat. […] Calculated at the 125 level, the resistant to susceptible value for the A genome was 4.57, the B genome was 3.57 and the D genome was 10.86.

Data set [3] concerns ACCase, D genome mutation (alanine to valine at position 2004). In words: In-vitro ACCase enzyme assay, D genome SNP accession. Particulars: for ACCase tolerance to quizalofop vs background: D genome SNP. In kind it is biochemical, wheat. On the procedure: as §1, with “1). The presence of any cross tolerance presents evidence that stacking resistant ACCase copies into a single plant could lead to resistance to additional herbicides. At this stage only a third of the total ACCase in the plant would have a mutation and contain tolerance to ACCase inhibitors if the mutation is target-site-based. DNA sequencing. DNA was collected from 26 quizalofop-tolerant phenotypes. Genome-specific primers were developed to amplify sequences from the A, B, and D ancestral wheat genomes. Sequenced results were compared to previously cloned non-mutant wheat sequences to determine any nucleotide substitutions present. […] This mutation on the A genome was found in eight accessions, on the B genome in nine accessions, and on the D genome in nine accessions. No accession had more than one of these SNPs.” for “1).”

Data set [4] concerns ACCase, B genome mutation (alanine to valine at position 2004). Description: In-vitro ACCase enzyme assay, B genome SNP accession. In kind it is biochemical, wheat. On the procedure:
as §1

Data set [5] relates to ACCase, A genome mutation (alanine to valine at position 2004). In words: In-vitro ACCase enzyme assay, A genome SNP accession. In kind it is biochemical, wheat. The protocol: as §1
Data set [6] relates to quizalofop-tolerant winter wheat accessions vs non-mutant Hatcher wheat. Description: Visual evaluation of quizalofop injury on quizalofop-tolerant accessions. In kind it is in vivo, Triticum aestivum L. The note with it: nearly all of 18 quizalofop-tolerant accessions; 21.05 g ai ha^−1; 28 DAT; compared with non-mutant Hatcher. The protocol: Plants were screened for visual injury, whole-plant quizalofop tolerance differences, cross-tolerance, and evaluated genotypically and enzymatically.
Visual evaluation. 18 quizalofop-tolerant accessions were treated with 21.05 g ai ha^−1 quizalofop, a discriminating dose based on previous studies. Plants were evaluated 28 days after treatment (DAT) for visible injury to quizalofop on a scale of 0 to 100%, with 0 being no injury and 100 being complete desiccation. […] The accessions had few completely dead plants, with the exception of the one accession not different than the background.

Data set [7] deals with single-gene (AF28, AF26, AF10) and two-gene (AB17, AB157, BD4, AD91) wheat lines. Description: Field crop safety trial with and without safener.
Method: During the 2014-2015 growing season, a field crop safety trial was performed to assess these lines for relative levels of resistance and performance under two application timings, applied with and without the safener cloquintocet-mexyl.
Determine relative levels of resistance between two-gene lines and single-gene lines. Determine which application timing (early or late spring) provided the highest crop safety.
One quizalofop susceptible line (Hatcher), four two-gene breeding lines (CO14A006 [AB17], CO14A041[AB157], CO14A075 [BD4], CO14A065 [AD91) and three one-gene parent lines (AF28, AF26, and AF10) were compared. A split-split plot design was used in which quizalofop p-ethyl was applied at 92.5 g ai ha^−1 with 1% MSO corresponding to the highest likely label application rate on March 31st at the tillering growth stage, and on May 2nd at the jointing growth stage. Cloquintocet safener (10 g ai/ha) was included in the split-split plot design. In the analysis, visual injury ratings and height were assessed one month before harvest, and grain yield in grams per plot was also used as a response factor. The SAS statistical package and proc mixed were used for analysis with a tukey-adjusted p-value of 0.05 as the cutoff value. The analysis was sliced by the cloquintocet factor, and comparisons of timing were made within lines.
The subject of data set [8] is quizalofop tolerant mutant wheat accessions and non-mutant check. In words: Cross-resistance study within the ACCase herbicide mode of action, plant survival. The class given is in vivo, Triticum aestivum L. The note with it: for survival: 28 DAT, clethodim 65, sethoxydim 264, fluazifop 361 g ai ha^−1, clethodim + 10.5 g ai ha^−1 quizalofop. On the procedure:
Dose response. A dose response study was completed with 11, 23, 46, 92, and 184 g quizalofop ha^−1. Seven DAT the tops of plants were cut off above the newest above-ground growing point. Binomial evaluation of plant survival was performed 28 DAT. Differences were uncovered in the whole plant sensitivity to increasing application rates of quizalofop. […] Resistant to susceptible ratios for this experiment ranged from 1.6 to 7.5 based on survival/death of the plants. Cross-resistance. A cross-resistance study was conducted within the ACCase herbicide mode of action using herbicides normally lethal to wheat. Clethodim, sethoxydim, and fluazifop were used at rates of 65, 264, and 361 g ai ha^−1, plus a treatment of clethodim and 10.5 g ai ha^−1 quizalofop. Seven DAT the tops of plants were cut off above the newest above-ground growing point. Binomial evaluation of plant survival was performed 28 DAT. Tolerance of quizalofop mutants to clethodim and sethoxydim was low (Table 1). The presence of any cross tolerance presents evidence that stacking resistant ACCase copies into a single plant could lead to resistance to additional herbicides. At this stage only a third of the total ACCase in the plant would have a mutation and contain tolerance to ACCase inhibitors if the mutation is target-site-based. DNA sequencing. DNA was collected from 26 quizalofop-tolerant phenotypes. Genome-specific primers were developed to amplify sequences from the A, B, and D ancestral wheat genomes. Sequenced results were compared to previously cloned non-mutant wheat sequences to determine any nucleotide substitutions present. […] This mutation on the A genome was found in eight accessions, on the B genome in nine accessions, and on the D genome in nine accessions. No accession had more than one of these SNPs. The mutation was a C to T substitution resulting in an alanine to valine change (FIG. 7). Each accession with higher survival than the background contained one of these SNPs. Based on the chromatograph patterns, the majority these SNPs are also believed to be homozygous in the plant. ACCase enzyme characterization. An in-vitro enzyme assay was conducted to observe ACCase in conjunction with quizalofop directly to determine if the presence of ACCase mutations decreases the ability of herbicides to inhibit ACCase activity. Four quizalofop concentrations of 0.1, 1, 10, and 100 μM were included in the assay along with a non-treated treatment. The experiment included four accessions which included a representative from the three mutations detected and non-mutagenized wheat. […] Calculated at the 125 level, the resistant to susceptible value for the A genome was 4.57, the B genome was 3.57 and the D genome was 10.86.

As for `O=C(O)COc1ccc(Cl)c2cccnc12` [cloquintocet acid], the “potentiation of resistance to acetyl-CoA carboxylase herbicides” value in data set [1] is given as “just as effectively resistance as the multiple copy lines”.
As to `CC(Oc1ccc(Oc2cnc3cc(Cl)ccc3n2)cc1)C(=O)O` (centres unmarked) [quizalofop, (.+−.)-2-[4-[(6-chloro-2-quinoxalinyl)-oxy]phenoxy]propanoic acid], the “ACCase sensitivity to quizalofop” value in data set [2] is given as “greater sensitivity”. Moreover, the “ACCase tolerance to quizalofop vs background” value in data set [3] (10 μM quizalofop) is on record as “higher than background levels of tolerance”; in data set [3] (100 μM quizalofop), “higher than background tolerance”; in data set [4] (B genome SNP, 10 μM quizalofop), “higher than background levels of tolerance”; in data set [5] (A genome SNP, 100 μM quizalofop), “higher than background tolerance”. Also, the “resistant to susceptible value, calculated at the 125 level” value in data set [3] (D genome, vs non-mutagenized wheat) was 10.86; in data set [4] (B genome, vs non-mutagenized wheat), 3.57; in data set [5] (A genome, vs non-mutagenized wheat), 4.57. Also, the “visible injury to quizalofop on a scale of 0 to 100%” value in data set [6] was “more tolerant to quizalofop than non-mutant Hatcher wheat”.
Regarding `CCOC(=O)[C@@H](C)Oc1ccc(Oc2cnc3cc(Cl)ccc3n2)cc1` [quizalofop p-ethyl], the “crop injury (reduced height, reduced yield, or increased injury rating)” value in data set [7] (May (jointing) compared to March (tillering) treatment timing) is “consistently higher crop injury”. The crop safety entry in data set [7] (all two-gene lines, 92.5 g ai ha^−1, no safener, vs single-gene lines) is reported as “much higher levels of crop safety”. Also, the “crop injury compared to the untreated control” value in data set [7] (single-gene line AF28, 92.5 g ai ha^−1, no safener) was “only showed injury with the May treatment timing”; in data set [7] (single-gene lines, 92.5 g ai ha^−1 with 1% MSO, no safener, March and May timings), “significant injury”. Besides, the crop injury entry in data set [7] (two-gene line AD91, 92.5 g ai ha^−1, with or without safener, March or May) is listed as “no crop injury for any treatment combination”; in data set [7] (two-gene lines AB157 and AB17, 92.5 g ai ha^−1, no safener), “crop injury in the May treatment timing”.
As to `CC(Oc1ccc(Oc2ccc(C(F)(F)F)cn2)cc1)C(=O)O` (centres unmarked) [Fluazifop, (.+−.)-2-[4-[[5-(trifluoromethyl)-2-pyridinyl]oxy]phenoxy]propanoic acid], the survival in data set [8] (Accession 0 (non-mutant check)), in data set [8] (Accession 1), in data set [8] (Accession 2), in data set [8] (Accession 3), in data set [8] (Accession 4) and in data set [8] (Accession 5) was 0% each time. Also, the survival in data set [8] (Accession 6), in data set [8] (Accession 7), in data set [8] (Accession 8), in data set [8] (Accession 9), in data set [8] (Accession 10) and in data set [8] (Accession 11) was 0% in each case. Further, the survival in data set [8] (Accession 12), in data set [8] (Accession 13), in data set [8] (Accession 14), in data set [8] (Accession 15), in data set [8] (Accession 16) and in data set [8] (Accession 17) was 0% each time.
Take `CCCC(=NOCC)C1=C(O)CC(CC(C)SCC)CC1=O` (centres unmarked) [Sethoxydin, 2-[1-(ethoxyimino)-butyl]-5-[2-(ethylthio)propyl]-3-hydroxy-2-cylohexen-1-one]: the survival in data set [8] (Accession 0 (non-mutant check)), in data set [8] (Accession 1), in data set [8] (Accession 2), in data set [8] (Accession 3), in data set [8] (Accession 4) and in data set [8] (Accession 5) was 0% in each case. In addition, the survival in data set [8] (Accession 6) came to 0%; in data set [8] (Accession 7), 0%; in data set [8] (Accession 8), 0%; in data set [8] (Accession 9) it was 0%; in data set [8] (Accession 10), 0%; in data set [8] (Accession 11), 8%. For the same compound, the survival came to 8% in data set [8] (Accession 12); 0% in data set [8] (Accession 13); 0% in data set [8] (Accession 14); 0% in data set [8] (Accession 15); 0% in data set [8] (Accession 16); 0% in data set [8] (Accession 17). Moreover, the “Tolerance of quizalofop mutants” value in data set [8] (summary of Table 1) is given as “low”.
As for `CCSC(C)CC1CC(=O)C(/C(CC)=N/OC/C=C/Cl)=C(O)C1` (centres unmarked) [Clethodim, (E,E)-(.+−.)-2-[1-[[(3-chloro-2-propenyl)oxy]imino]propyl]-5-[2-(ethylth-io)propyl]-3-hydroxy-2-cyclohexen-1-one], the survival in data set [8] (Accession 0 (non-mutant check)) came to 0%; in data set [8] (Accession 1) it was 10%; in data set [8] (Accession 2), 0%; in data set [8] (Accession 3) it was 0%; in data set [8] (Accession 4) it was 0%; in data set [8] (Accession 5), 0%. In addition, the survival came out at 0% in data set [8] (Accession 6); 0% in data set [8] (Accession 7); 25% in data set [8] (Accession 8); 17% in data set [8] (Accession 9); 0% in data set [8] (Accession 10); 0% in data set [8] (Accession 11). The survival in data set [8] (Accession 12) is given as 17%; in data set [8] (Accession 13), 0%; in data set [8] (Accession 14) it was 0%; in data set [8] (Accession 15), 0%; in data set [8] (Accession 16), 0%; in data set [8] (Accession 17), 0%.
